Target: T1, Hormone-sensitive lipase (Rattus norvegicus, UniProt P15304)
T1 sequence (P15304 whole entry): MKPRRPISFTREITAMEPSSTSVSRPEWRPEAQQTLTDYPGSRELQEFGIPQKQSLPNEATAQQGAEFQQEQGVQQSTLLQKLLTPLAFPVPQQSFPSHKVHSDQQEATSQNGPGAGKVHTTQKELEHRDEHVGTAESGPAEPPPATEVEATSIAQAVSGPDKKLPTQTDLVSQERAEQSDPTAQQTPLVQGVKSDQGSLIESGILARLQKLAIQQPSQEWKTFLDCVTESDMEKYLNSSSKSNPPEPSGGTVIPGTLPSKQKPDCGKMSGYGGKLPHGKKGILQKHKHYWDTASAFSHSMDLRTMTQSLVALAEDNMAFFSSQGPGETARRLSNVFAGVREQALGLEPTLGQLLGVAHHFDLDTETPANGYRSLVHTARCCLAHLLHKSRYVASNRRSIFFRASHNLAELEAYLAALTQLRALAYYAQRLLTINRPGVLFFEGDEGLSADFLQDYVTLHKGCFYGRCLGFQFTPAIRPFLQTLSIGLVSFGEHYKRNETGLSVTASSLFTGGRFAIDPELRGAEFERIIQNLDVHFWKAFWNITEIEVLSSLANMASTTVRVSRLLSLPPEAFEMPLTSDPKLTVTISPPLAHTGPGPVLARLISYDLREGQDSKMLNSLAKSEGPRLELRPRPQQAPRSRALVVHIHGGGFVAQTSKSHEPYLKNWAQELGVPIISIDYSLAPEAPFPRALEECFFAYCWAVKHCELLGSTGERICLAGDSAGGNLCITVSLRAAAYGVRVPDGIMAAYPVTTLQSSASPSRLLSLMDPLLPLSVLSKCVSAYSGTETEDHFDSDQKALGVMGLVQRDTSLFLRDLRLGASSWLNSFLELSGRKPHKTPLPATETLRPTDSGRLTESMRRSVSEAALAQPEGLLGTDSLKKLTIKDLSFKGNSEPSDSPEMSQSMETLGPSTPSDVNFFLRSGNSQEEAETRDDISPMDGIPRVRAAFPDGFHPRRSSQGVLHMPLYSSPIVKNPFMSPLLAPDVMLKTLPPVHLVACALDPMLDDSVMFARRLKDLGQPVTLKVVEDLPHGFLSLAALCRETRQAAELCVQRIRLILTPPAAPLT
Assay: Inhibition of HSL in Wistar rat isolated fat cells by spectrophotometric assay

Compound	IC50
Cc1c(C(C)C)c(=O)on1C(=O)N1CCCC(CO)C1 (centres undefined)	180 nM
Cc1c(C(C)C)c(=O)on1C(=O)N1CCC(Cc2ccccc2)CC1	102 nM
Cc1c(C(C)C)c(=O)on1C(=O)NCC1CCCCC1	72 nM
Cc1ccc(CN(C)C(=O)n2oc(=O)c(C(C)C)c2C)cc1	408 nM
Cc1c(C(C)C)c(=O)on1C(=O)N1CCC(c2ccc(C(F)(F)F)cc2)CC1	160 nM
Cc1c(C(C)C)c(=O)on1C(=O)N(C)c1ccccn1	240 nM
CSc1nc(-c2ccc(Cl)cc2)nn1C(=O)N1CCCCC1	1.76 nM
Cc1c(C(C)C)c(=O)on1C(=O)N1CCC(=O)CC1	200 nM
O=C(N1CCCCC1)n1nc(-c2ccc(Cl)cc2)nc1SCC(F)(F)F	7.06 nM
Cc1nnc(C2CCN(C(=O)n3oc(=O)c(C(C)C)c3C)CC2)o1	> 1000 nM
Cc1c(CCOc2ccccc2)c(=O)on1C(=O)N1CCCCC1	4 nM
CN(C(=O)n1nc(-c2ccc(Cl)cc2)nc1SCC1CC1)c1ccccc1	1.09 nM
Cc1c(C(C)C)c(=O)on1C(=O)N1CCN(c2ccccc2Cl)CC1	30 nM
CSc1nc(-c2ccc(Cl)cc2)nn1C(=O)N(C)c1ccccc1	2.82 nM
Cc1c(C2CCCCC2)c(=O)on1C(=O)N1CCCCC1	11 nM
CCOc1nn(-c2cccc(OCc3ccccc3)c2)c(=O)o1	19.4 nM
Cc1c(-c2ccccc2)c(=O)on1C(=O)N1CCCCC1	14 nM
Cc1c(C(C)C)c(=O)on1C(=O)N(C)CC(N)=O	> 1000 nM
Cc1c(C(C)C)c(=O)on1C(=O)N1CCC[C@@H](C)C1	20 nM
CSc1nc(-c2cccc3ccccc23)nn1C(=O)N(C)C	35.3 nM
CSc1nc(-c2ccc(-c3ccccc3)cc2)nn1C(=O)N(C)C	26.5 nM
Cc1c(C(C)C)c(=O)on1C(=O)N(C)CCC#N	> 1000 nM
CCN(CC)C(=O)n1oc(=O)c(C(C)C)c1C	1400 nM

Compound	IC50
Cc1c(C2CCOCC2)c(=O)on1C(=O)N1CCCCC1	71 nM
Cc1c(C(C)C)c(=O)on1C(=O)N(C)Cc1ccco1	4 nM
CCOC(=O)C1CCCN(C(=O)n2oc(=O)c(C(C)C)c2C)C1 (centres undefined)	28 nM
CCOCCc1c(C)n(C(=O)N2CCC(C)CC2)oc1=O	3 nM
Cc1c(C(C)C)c(=O)on1C(=O)N(C)Cc1cccc(F)c1	5 nM
Cc1c(C(C)C)c(=O)on1C(=O)N1CCN(Cc2ccccc2)CC1	65 nM
Cc1c(C(C)(C)C)c(=O)on1C(=O)N1CCCCC1	14 nM
Cc1c(S(=O)(=O)c2ccc(Cl)cc2)c(=O)on1C(=O)N1CCCCC1	35 nM
CSc1nc(-c2ccc(C)cc2)nn1C(=O)N1CCOCC1	70.6 nM
CSc1nc(-c2ccc(OC(F)(F)F)cc2)nn1C(=O)N(C)C	1.76 nM
COc1nn(-c2ccc(NC(=O)c3ccc(C(C)(C)C)cc3)cc2)c(=O)o1	0.41 nM
Cc1c(C(C)C)c(=O)on1C(=O)N1CCC(C)CC1	6 nM
Cc1c(CC(C)C)c(=O)on1C(=O)N1CCCCC1	5 nM
Cc1c(C(C)C)c(=O)on1C(=O)N1CCC[C@H](C)C1	3 nM
Cc1c(C)n(C(=O)N2CCCCC2)oc1=O	13 nM
CCOC(=O)C1CCN(C(=O)n2oc(=O)c(C(C)C)c2C)CC1	6 nM
Cc1c(C(C)C)c(=O)on1C(=O)N1CCCc2ccccc21	60 nM
CCCCc1c(C)n(C(=O)N2CCC(C)CC2)oc1=O	1 nM
Cc1c(C(C)C)c(=O)on1C(=O)N1CCC(C(=O)N(C)C)CC1	> 1000 nM
CCCSc1nc(-c2ccc(Cl)cc2)nn1C(=O)N(C)C	1.06 nM
CSc1nc(-c2ccc(OC(F)(F)F)cc2)nn1C(=O)N(C)c1ccccc1	4.41 nM
COCCc1c(C)n(C(=O)N2CCC(c3cccc(C)c3)CC2)oc1=O	23 nM
Cc1c(C2CCCC2)c(=O)on1C(=O)N1CCCCC1	6 nM

Compound	IC50
Cc1c(C(C)C)c(=O)on1C(=O)N1CCCCC1C (centres undefined)	93 nM
O=C(N1CCCCC1)n1nc(-c2ccc(Cl)cc2)nc1SCC1CC1	3.53 nM
Cc1c(C(C)C)c(=O)on1C(=O)N(C)CCc1ccccc1	180 nM
CCN(CC)C(=O)C1CCCN(C(=O)n2oc(=O)c(C(C)C)c2C)C1 (centres undefined)	> 1000 nM
COCCc1c(C)n(C(=O)N2CCC(c3ccccc3)CC2)oc1=O	11 nM
CSc1nc(-c2ccc(Cl)cc2)nn1C(=O)N1CCOCC1	35.3 nM
Cc1c(Sc2ccc(Cl)cc2)c(=O)on1C(=O)N1CCCCC1	6 nM
Cc1c(C(C)C)c(=O)on1C(=O)N1CCN(C)CC1	314 nM
CSc1nc(-c2ccc(Cl)cc2)nn1C(=O)N(C)C	0.353 nM
Cc1c(C(C)C)c(=O)on1C(=O)N(C)Cc1cccs1	2 nM
Cc1c(Cc2cc3ccccc3n2C)c(=O)on1C(=O)N1CCCCC1	17 nM
Cc1c(C(C)C)c(=O)on1C(=O)N1CC(C)CC(C)C1 (centres undefined)	326 nM
Cc1c(C(C)C)c(=O)on1C(=O)N1CCc2ccccc21	> 1000 nM
CSc1nc(-c2ccc(C)cc2)nn1C(=O)N(C)c1ccccc1	1.76 nM
CSc1nc(-c2ccc(C(F)(F)F)cc2)nn1C(=O)N(C)C	1.76 nM
COCCc1c(C)n(C(=O)N2CCCCC2)oc1=O	10 nM
Cc1c(C(C)C)c(=O)on1C(=O)N(C)c1ccc(Cl)cc1	17 nM
CCCCCCSc1nc(-c2ccc(Cl)cc2)nn1C(=O)N1CCOCC1	882 nM
CSc1nc(-c2ccc(C)cc2)nn1C(=O)N(C)C	0.53 nM
Cc1c(C(C)C)c(=O)on1C(=O)N(C)Cc1ccccc1F	4 nM
Cc1c(C(C)C)c(=O)on1C(=O)N1CCN(c2ncccn2)CC1	67 nM
Cc1c(C(C)C)c(=O)on1C(=O)N1CCSCC1	8 nM
Cc1c(C(C)C)c(=O)on1C(=O)N(C)Cc1ccc(F)cc1	111 nM

Compound	IC50
COCCc1c(C)n(C(=O)N2CCC(c3cccc(F)c3)CC2)oc1=O	20 nM
Cc1c(Cc2ccccc2)c(=O)on1C(=O)N1CCCCC1	5 nM
COc1ccc(-c2nc(SC)n(C(=O)N(C)C)n2)cc1	15.9 nM
Cc1c(C(C)C)c(=O)on1C(=O)N1CCC(c2ccc(C(C)(C)C)cc2)CC1	480 nM
Cc1c(C(C)C)c(=O)on1C(=O)N1CCC(c2ccccc2)CC1	12 nM
Cc1c(C2CCSCC2)c(=O)on1C(=O)N1CCC(C)CC1	6 nM
Cc1c(C(C)C)c(=O)on1C(=O)N1CCN(c2ccccc2)CC1	6 nM
CCc1c(C)n(C(=O)N2CCCCC2)oc1=O	18 nM
CCCCCCSc1nc(-c2ccc(C)cc2)nn1C(=O)N(C)C	882 nM
Cc1c(C2CCS(=O)(=O)CC2)c(=O)on1C(=O)N1CCCCC1	55 nM
Cc1ccc(-c2nc(SCC(F)(F)F)n(C(=O)N(C)C)n2)cc1	10.6 nM
Cc1c(CC(C)C)c(=O)on1C(=O)N1CCC(c2ccccc2)CC1	10 nM
Cc1c(C(C)C)c(=O)on1C(=O)N(C)C1CCCCC1	9 nM
Cc1c(C(C)C)c(=O)on1C(=O)Nc1ccccc1	> 1000 nM
Cc1c(C2CCCCC2)c(=O)on1C(=O)N1CCC(C)CC1	4 nM
Cc1c(C(C)C)c(=O)on1C(=O)N1CCCCC1	2 nM
CCCCc1c(C)n(C(=O)N2CCCCC2)oc1=O	7 nM
Cc1c(Sc2ccccc2)c(=O)on1C(=O)N1CCCCC1	6 nM
Cc1c(C(C)C)c(=O)on1C(=O)NC(C)(C)C	> 1000 nM
Cc1c(C(C)C)c(=O)on1C(=O)N(C)Cc1ccccc1	5 nM

From ChEMBL document CHEMBL1140143, “Combining ligand-based pharmacophore modeling, quantitative structure-activity relationship analysis and in silico screening for the discovery of new potent hormone sensitive lipase inhibitors” (J Med Chem, 2008)
